This note sets out measurements from patent publication US4882343A, “Biarylalkylimidazole derivatives as anti-depressants” (G. D. Searle & Co., priority 1987, dated 1989).

pKi: −log10 of the molar value.

Data set [1] has as its system α1 adrenergic receptor. The data set is described as follows: in vitro binding to alpha1-adrenergic receptors (3H-WB4101 or 3H-prazosin displacement), rat brain homogenates. The following applies: for % Inhibition of the specific binding for α1 receptor, Ligand WB / % Inhibition of the specific binding for α1 receptor, Ligand PRA: compd. conc. 10^-6 M, rat brain homogenates; for % Inhibition of the specific binding for α1 receptor, Ligand WB: ligand 3H-WB4101 1.6 nM; for % Inhibition of the specific binding for α1 receptor, Ligand PRA: ligand 3H-prazosin 0.2 nM; for pKi: ligand 3H-prazosin, Cheng and Prusoff, read-out: α1 receptor Ki value, ligand PRA. As to the method:
Table II summarizes the binding activities for α1 and α2 adrenergic receptors of the compounds tested. The activity of the compounds according to the invention with respect to binding of the α-adrenergic receptors was determined in vitro according to a method derived from the works of B. R. Rouot, et al., Life Sci., 25, 769 (1979) of D. U'Prichard, et al., Mol. Pharmacol., 13, 454 (1977) and of P. Greengrass, et al., European J. Pharmacol., 55, 323, 1979. This method measures the binding to the receptor on rat brain homogenates by marking by means of a specific tritiated ligand placed in competition with the product to be tested. In the present case the binding, to the α1 -adrenergic receptors was measured by use of 1.6 nM of H-WB 4101 (WB) and 0.2 nM --H--prazosin (PRA). The binding to the α2-adrenergic receptors was determined by uses of 0.7 nM of ^3 H-p-aminoclonidine (PAC). The non-specific binding was determined by use of 1,000 nM of phentolamine. Results are given in Table II with columns 2 and 3 expressed in terms of percentage of inhibition of the specific binding at 10^-7 molar and 10^-6 molar compound concentration.
In Table III, columns 2 and 3 show the pKi values (pKi=-log inhibition constant) for respecively the α1 receptor (ligand ^3 H-prazosin) and the α2 receptor (ligand ^3 H-p-aminoclonidine), calculated according to the equation of Cheng and Prusoff: [formula] wherein: Ki represents the inhibition constant;
IC50 represents the concentration of the test compound providing 50% inhibition of the specific binding;
(§1) KD represents the dissociation constant of the ^3 H-ligand in the test mixture
(§2) [L*] represents the concentration of the ^3 H-ligand in the test mixture.

In data set [2] the test system is α2 adrenergic receptor. The data set is described as follows: in vitro binding to alpha2-adrenergic receptors (3H-p-aminoclonidine displacement), rat brain homogenates. The following applies: ratio of Ki, ligand PRA (α1) / ligand PAC (α2). As to the method: (§3) This method measures the binding to the receptor on rat brain homogenates by marking by means of a specific tritiated ligand placed in competition with the product to be tested. […] The binding to the α2-adrenergic receptors was determined by uses of 0.7 nM of ^3 H-p-aminoclonidine (PAC). The non-specific binding was determined by use of 1,000 nM of phentolamine.
as §1, §2

Data set [3] has as its target T1, α2 adrenergic receptor (Rattus norvegicus, UniProt P22909).
T1 construct: rat brain homogenates; from tissue; host or cells: rat brain homogenate
T1 sequence (P22909 1-465): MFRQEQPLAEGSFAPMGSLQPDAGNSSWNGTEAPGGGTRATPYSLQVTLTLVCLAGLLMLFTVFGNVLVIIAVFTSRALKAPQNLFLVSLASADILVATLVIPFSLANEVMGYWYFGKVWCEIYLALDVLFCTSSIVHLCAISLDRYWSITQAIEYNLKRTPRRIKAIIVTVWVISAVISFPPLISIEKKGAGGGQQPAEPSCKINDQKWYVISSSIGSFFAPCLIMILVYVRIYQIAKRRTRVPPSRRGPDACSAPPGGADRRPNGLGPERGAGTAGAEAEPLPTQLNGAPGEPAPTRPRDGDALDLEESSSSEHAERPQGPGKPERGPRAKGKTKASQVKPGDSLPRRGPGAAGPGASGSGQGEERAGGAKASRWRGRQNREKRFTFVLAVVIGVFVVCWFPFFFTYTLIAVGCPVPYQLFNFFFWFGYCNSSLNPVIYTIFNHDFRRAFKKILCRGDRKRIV
Described as above. The following applies: for inhibition at 0.1 µM: compd. conc. 10^-7 M, ligand 3H-p-aminoclonidine 0.7 nM, rat brain homogenates, read-out: % Inhibition of the specific binding for α2 receptor, Ligand PAC; for affinity for α2 receptors in the in vitro binding assay (in words): rat brain, result in words; for pKi: ligand 3H-p-aminoclonidine, Cheng and Prusoff, read-out: α2 receptor Ki value, ligand PAC; for α2-receptor binding affinity for the aminoclonidine ligand relative to the ortho-pyridyl compound (Compound 3): para- and meta-pyridyl compounds versus ortho-pyridyl compound, Table III column 3. The procedure: as §3, §1, §2

Data set [4] is described as follows: acute toxicity after oral administration to mice (LD50). To be noted: mouse, in vivo, mortality recorded for 15 days. As to the method:
The acute toxicity of the compounds of the present invention was studied after oral administration to mice. The products to be tested, suspended in a 1% tragacanth gum mucilage, were administered by means of an intragastric probe to groups of three male mice which had fasted since the preceding day. The doses tested are a function of the effect observed and can vary from 3,000 to 3 mg/kg or less. The mortality was recorded for 15 days. The lethal dose for 50% of the animals (LD50) was calculated according to the method of J. Litchfield and F. Wilcoxon, J. Pharmacol. Exp. Ther., 96, 99 (1949) and expressed in mg/kg. The effect of the products on the behavior of the animals was observed during a 5-to-6 hour period after the treatment indicated above and after 24 hours, using a method derived from that of S. Irwin, described by R. A. Turner, Screening Methods in Pharmacology, Chapter 3, pages 22-34, Academic Press, 1965. If anomalies were noted, the observation was prolonged and smaller doses were tested. The compounds of the present invention have been subjected to a series of in vitro and in vivo tests to determine their biological activity and therapeutic utility. The essential activity of importance resides in the α2 receptor antagonistic activity. […]

Data set [5] relates to clonidine-induced depression of locomotor activity (α2 agonist effects). The data set is described as follows: open field test, antagonism of clonidine-induced depression of locomotor and rearing activity. The following applies: 3 mg/kg p.o.; for Open field test % inhibition of clonidine hypomobility, Locomotion / Open field test % inhibition of clonidine hypomobility, Rearing: 1 h before clonidine 150 μg/kg i.p., mouse. The format is in vivo, mouse. As to the method: This study involved clonidine α2 agonist effects on central control of locomotor activity. Clonidine inhibits locomotor activity and rearing activity in the mouse. In this "open field" test, mice were pretreated with the compounds of the present invention at a dose of 3 mg/kg p.o. (n=4 to 8), one hour prior to intraperitoneal administration of clonidine in solution (150 μg/kg, i.p.). Ninety minutes after the clonidine administration the animals were placed in a rectangular "open field" of 47×53 cm, having a floor divided into 36 boxes of about 8×9 cm. The number of boxes through which the animal goes in 3 minutes and the number of rearing episode were noted.

Data set [6] addresses T2, α2 adrenergic receptors (Cavia porcellus, UniProt Q60474).
T2 construct: upon isolated organs according to a model described by G. Drews; from tissue; host or cells: isolated guinea pig ileum
T2 sequence (Q60474 1-464): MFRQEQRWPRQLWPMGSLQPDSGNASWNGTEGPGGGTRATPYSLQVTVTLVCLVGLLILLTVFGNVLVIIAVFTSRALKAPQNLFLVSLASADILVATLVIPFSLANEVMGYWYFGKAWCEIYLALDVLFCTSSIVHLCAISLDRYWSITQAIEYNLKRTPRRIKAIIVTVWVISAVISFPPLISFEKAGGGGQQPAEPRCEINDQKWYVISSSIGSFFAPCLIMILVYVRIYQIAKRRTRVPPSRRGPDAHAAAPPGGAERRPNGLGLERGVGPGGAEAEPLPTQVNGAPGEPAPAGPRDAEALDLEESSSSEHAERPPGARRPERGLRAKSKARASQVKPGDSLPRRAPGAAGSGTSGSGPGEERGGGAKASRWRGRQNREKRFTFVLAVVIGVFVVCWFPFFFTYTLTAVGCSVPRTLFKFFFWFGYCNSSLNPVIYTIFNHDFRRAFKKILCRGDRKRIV
The data set is described as follows: isolated guinea pig ileum, α2 antagonistic and α2 agonistic activity (clonidine inhibition of electrically induced contractions). The procedure: In Table IV, columns 3 and 4 summarize the in vitro activities of the compounds evaluated in a guinea pig ileum model. Column 5 summarizes the α2 antagonistic effects of the compounds in an in vivo animal model. The α2 antagonistic and α2 agonistic activities of the compounds according to the invention were determined upon isolated organs according to a model described by G. Drews, Br. J. Pharmaco., 64, 293-300 (1978). This model was based upon the principle that the stimulation of the cholinergic nervous transmissions of the guinea pig ileum causes the liberation of acetyl choline, which in turn causes contractions of the ileum. The stimulation of the α2 -adrenergic receptors inhibits the activity of the cholinergic nerves and consequently reduces all responses due to the latter. Thus the contractions of the ileum induced by electric stimulation are inhibited by clonidine, an α2 agonist, in proportion to the dose. This inhibition was selectively displaced by α2 antagonists and not by α1 antagonists. The method used can be summarized as follows. Three dose-response curves to clonidine were established at an interval of 60 minutes. […] The dose-response curves were calculated as a percentage of the maximum inhibition obtained for the first curve. […] The α2 antagonist activity, expressed in pA2 value shown in column 3 of Table IV, was calculated according to J. M. Van Rossum, Arch. […]

As a reminder, the pKi is the negative decadic logarithm of the Ki, by convention in mol/L. Usually inhibition stands for the percentage by which the read-out fell short of the control. As a reminder, the LD50 is the dose expected to kill half of the subjects tested. Read a high LD50 as a less toxic substance.

`c1ccc(C(Cc2c[nH]cn2)c2cccnc2)cc1` (stereo not drawn) [Compound 2, 4(5)-[2-phenyl-2-(3-pyridinyl)-ethyl]-imidazole]: in data set [1], the “% Inhibition of the specific binding for α1 receptor, Ligand WB” value (from here on “% Inhibition … Ligand WB”) amounted to 7%; the “% Inhibition of the specific binding for α1 receptor, Ligand PRA” value (shortened to “% Inhibition … Ligand PRA”) was 10%; the pKi is 5.59. Moreover, the “Selectivity of α1/α2 affinity (Kiα1/Kiα2)” value (“Selectivity” for short) in data set [2] turned out to be 540. Also, in data set [3], the inhibition at 0.1 µM was 94%, the “affinity for α2 receptors in the in vitro binding assay (in words)” value is recorded as “high affinity for α2 receptors”, the negative-log Ki (pKi) is 8.32 and the “α2-receptor binding affinity for the aminoclonidine ligand relative to the ortho-pyridyl compound (Compound 3)” value is recorded as “fifteen times higher”. The LD50 at 360 h in data set [4] was approximately 175 mg/kg.
Regarding `c1ccc(C(Cc2c[nH]cn2)c2ccccc2)cc1` [CC, reference compound], in data set [1], the “% Inhibition … Ligand WB” value came out at 21%; the “% Inhibition … Ligand PRA” value is 27%; the negative-log Ki (pKi) was 6.18. Further, the “Selectivity” value in data set [2] was 85. The negative logarithm of the Ki (pKi) in data set [3] was 8.11. Further, in data set [5], the “Open field test % inhibition of clonidine hypomobility, Locomotion” value was 100% and the “Open field test % inhibition of clonidine hypomobility, Rearing” value was found to be 100%.
For the molecule `c1ccc(C(Cc2c[nH]cn2)c2ccccn2)cc1` (stereo not drawn) [Compound 3, 4(5)-[2-phenyl-2-(2-pyridyl)-ethyl]-imidazole], the “% Inhibition … Ligand WB” value in data set [1] worked out at 0%. For the same molecule, the Kb in data set [6] (against clonidine, read-out: α2 antagonist activity pA2 (converted)) was 50.1 nM. Moreover, the EC50 in data set [6] (pD2 = -log ED50, 50% of maximum inhibition obtained with clonidine, read-out: α2 agonist activity pD2 (converted)) is 100000 nM. For the same molecule, in data set [3], the inhibition at 0.1 µM amounted to 40% and the pKi was 7.14. This molecule also gave an LD50 at 360 h in data set [4] of 130 mg/kg.
For `c1ccc(C(Cc2c[nH]cn2)c2ccncc2)cc1` (stereo not drawn) [Compound 1, 4(5)-[2-phenyl-2-(4-pyridinyl)-ethyl]-imidazole], in data set [1], the “% Inhibition … Ligand WB” value turned out to be 2%; the “% Inhibition … Ligand PRA” value was determined as 14%; the negative-log Ki (pKi) was 4.87. The “Selectivity” value in data set [2] stood at 2900. In data set [3], the inhibition at 0.1 µM is 91%, the “affinity for α2 receptors in the in vitro binding assay (in words)” value is “high affinity for α2 receptors”, the pKi was 8.34 and the “α2-receptor binding affinity for the aminoclonidine ligand relative to the ortho-pyridyl compound (Compound 3)” value is on record as “fifteen times higher”. Moreover, in data set [5], the “Open field test % inhibition of clonidine hypomobility, Locomotion” value turned out to be 90% and the “Open field test % inhibition of clonidine hypomobility, Rearing” value worked out at 80%. Also, the “antagonism of clonidine-induced depression of locomotor and rearing activity (in words)” value in data set [5] (mouse open field, result in words) is reported as “very active in this test”.
